{"source": "patent US10682388B2", "about": "“Targeting of PELP1 in cancer therapy” (THE BOARD OF REGENTS OF THE UNIVERSITY OF TEXAS SYSTEM, priority 2014, dated 2020)", "key": {"[1]": {"test_system": "Beta-catenin reporter in ZRGST and ZRPELP1GST cells", "assay": "TopFlash β-catenin reporter assay", "type": "cell-based", "conditions": "10 μM, 24 hours, independent of ERα, FIG. 7C", "protocol": "(§1) FIGS. 7A-E. (FIG. 7A) Bacterial purified PELP1 was incubated with biotin-tagged peptides bound to avidin beads for one hour. Beads were washed, run on SDS-PAGE gel and probed for PELP1 expression. Input of bacterial PELP1 is shown as control. (FIG. 7B) Recombinant G9a-GST was bound to glutathione beads and incubated with purified PELP1 and peptides for 2 hours. Beads were washed and run on SDS-PAGE gel. (+2 μM, ++5 μM, +++10 μM). (FIG. 7C) ZRGST and ZRPELP1GST cells were transfected in triplicate with TopFlash β-catenin reporter and treated with TAT or PIP1 (10 μM) for 24 hours. Relative luciferase activity is shown. (FIG. 7D) MCF7vec and MCF7PELP1 cells were treated with TAT or PIP1 (10 μM) and toxicity was measured by CytoTox-Flour Cytotoxicity Assay. (FIG. 7E) ZR75 and ZR75PELP1 cells were treated with TAT, PIP1 or PIP2 for 24 hours and immunoblotted for PELP1 and ERα expression with actin as the loading control."}, "[2]": {"test_system": "T98G, LN229 and U251 glioma cells and patient-derived primary GBM cells", "assay": "MTT proliferation assay, glioma cell lines and primary GBM cells", "type": "cell-based", "conditions": "FIGS. 15A-D", "protocol": "FIGS. 15A-D. PIPs inhibit proliferation of glioma cells. (FIGS. 15A-B) T98G, LN229 and U251 glioma cells were treated with vehicle or varying concentration of PIP1 or PIP3, and proliferation was measured by using the MTT assay. (FIGS. 15C-D) Patient-derived primary GBM cells were treated with PIP1 or PIP3 and proliferation was measured using the MTT assay. Cell proliferation rates were measured by using MTT Cell Viability Assay in 96-well plates. Model cells were seeded in 96-well plates (1×10^3 cells/well) in DMEM or RPMI medium containing 10% serum. After an overnight incubation, cells were treated with varying concentrations of the peptides for 3-7 days and growth inhibition was determined by using traditional MTT assay (Sigma) following manufacturer's instructions."}, "[3]": {"biological_target": "PELP1 (Homo sapiens, UniProt Q8IZL8)", "sequence (Q8IZL8 whole entry, the tested form may be a part)": "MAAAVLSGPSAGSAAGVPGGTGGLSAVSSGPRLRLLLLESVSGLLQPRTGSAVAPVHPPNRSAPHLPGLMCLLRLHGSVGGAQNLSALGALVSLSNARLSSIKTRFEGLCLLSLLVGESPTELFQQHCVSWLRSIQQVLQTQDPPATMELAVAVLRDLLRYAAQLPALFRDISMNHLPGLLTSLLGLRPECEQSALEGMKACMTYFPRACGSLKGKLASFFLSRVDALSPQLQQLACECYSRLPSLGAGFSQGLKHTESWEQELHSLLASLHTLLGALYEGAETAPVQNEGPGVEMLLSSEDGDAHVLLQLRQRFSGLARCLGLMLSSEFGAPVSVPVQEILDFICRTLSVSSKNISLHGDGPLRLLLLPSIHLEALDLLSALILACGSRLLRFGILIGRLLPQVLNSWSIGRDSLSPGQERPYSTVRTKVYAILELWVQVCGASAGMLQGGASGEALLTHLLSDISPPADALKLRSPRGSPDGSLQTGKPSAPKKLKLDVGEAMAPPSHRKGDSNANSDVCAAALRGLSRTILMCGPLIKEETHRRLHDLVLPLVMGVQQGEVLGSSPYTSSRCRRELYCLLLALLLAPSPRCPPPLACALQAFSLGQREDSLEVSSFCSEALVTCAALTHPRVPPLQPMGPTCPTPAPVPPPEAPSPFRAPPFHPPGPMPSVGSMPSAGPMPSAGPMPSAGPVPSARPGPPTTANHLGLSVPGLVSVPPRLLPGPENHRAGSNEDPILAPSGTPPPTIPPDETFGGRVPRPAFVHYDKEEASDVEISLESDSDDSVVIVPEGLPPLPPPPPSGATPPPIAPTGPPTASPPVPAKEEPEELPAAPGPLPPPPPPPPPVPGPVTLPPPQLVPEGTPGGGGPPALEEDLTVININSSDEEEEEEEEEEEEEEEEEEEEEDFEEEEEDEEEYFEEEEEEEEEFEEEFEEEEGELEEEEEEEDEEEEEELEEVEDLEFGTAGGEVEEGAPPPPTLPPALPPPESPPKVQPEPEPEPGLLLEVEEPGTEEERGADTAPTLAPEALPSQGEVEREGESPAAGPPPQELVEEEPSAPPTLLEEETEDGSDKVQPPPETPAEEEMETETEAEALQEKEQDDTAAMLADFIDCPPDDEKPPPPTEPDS", "assay": "Peptide pull-down assay, biotin-tagged peptides on avidin beads with nuclear lysates from ZR75 cells", "type": "binding", "conditions": "one hour, FIG. 1D", "protocol": "FIGS. 1A-D. (FIG. 1A) Diagram for yeast two hybrid screen to identify PELP1 binding peptides. Four regions of PELP1 were tagged with the binding domain and a library of 10^6 random peptides (Clontech) were bound to an activation domain. The number of positive colonies per region of PELP1 are shown in the graph. (FIG. 1B) A proliferation assay was performed with […]1 cells plated in a 96 well plate, treated with peptide every 3 days and absorbance was measured at 7 days. (FIG. 1C) ZR75 were plated in a 6-well plate on coverslips in 8% RPMI and treated with 10 uM FITC labeled peptide for 30, 60, or 120 minutes. They were then fixed with pararformaldehyde, stained for PELP1 (red) and DAPI (blue), and imaged by confocal microscopy to monitor intracellular delivery. (FIG. 1D) ZR75 cells were starved of estrogen for 72 hours and treated with estradiol 10^-7 M for 12 hours. Nuclear lysate was incubated with biotin-tagged peptides bound to avidin beads for one hour. Beads were washed, run on SDS-PAGE gel and probed for PELP1 expression. Input of nuclear lysate is shown as control. Peptides were linked to EZ-Link NHS-Biotin (Thermo Scientific) per manutfacturer's protocol. […] Beads were washed 3× with IP buffer (20 mM HEPES pH 7.9, 20% glycerol, 0.1% triton-x, 100 mM KCl), eluted with SDS-dye, and PELP1 expression was determined by western blotting. […]"}, "[4]": {"biological_target": "T1, PELP1-G9a complex (Homo sapiens, UniProt Q8IZL8)", "T1 construct": "purified bacterial, full-length PELP1; host or cells: bacteria (PELP1)", "T1 sequence (Q8IZL8 2-1130, one chain of several)": "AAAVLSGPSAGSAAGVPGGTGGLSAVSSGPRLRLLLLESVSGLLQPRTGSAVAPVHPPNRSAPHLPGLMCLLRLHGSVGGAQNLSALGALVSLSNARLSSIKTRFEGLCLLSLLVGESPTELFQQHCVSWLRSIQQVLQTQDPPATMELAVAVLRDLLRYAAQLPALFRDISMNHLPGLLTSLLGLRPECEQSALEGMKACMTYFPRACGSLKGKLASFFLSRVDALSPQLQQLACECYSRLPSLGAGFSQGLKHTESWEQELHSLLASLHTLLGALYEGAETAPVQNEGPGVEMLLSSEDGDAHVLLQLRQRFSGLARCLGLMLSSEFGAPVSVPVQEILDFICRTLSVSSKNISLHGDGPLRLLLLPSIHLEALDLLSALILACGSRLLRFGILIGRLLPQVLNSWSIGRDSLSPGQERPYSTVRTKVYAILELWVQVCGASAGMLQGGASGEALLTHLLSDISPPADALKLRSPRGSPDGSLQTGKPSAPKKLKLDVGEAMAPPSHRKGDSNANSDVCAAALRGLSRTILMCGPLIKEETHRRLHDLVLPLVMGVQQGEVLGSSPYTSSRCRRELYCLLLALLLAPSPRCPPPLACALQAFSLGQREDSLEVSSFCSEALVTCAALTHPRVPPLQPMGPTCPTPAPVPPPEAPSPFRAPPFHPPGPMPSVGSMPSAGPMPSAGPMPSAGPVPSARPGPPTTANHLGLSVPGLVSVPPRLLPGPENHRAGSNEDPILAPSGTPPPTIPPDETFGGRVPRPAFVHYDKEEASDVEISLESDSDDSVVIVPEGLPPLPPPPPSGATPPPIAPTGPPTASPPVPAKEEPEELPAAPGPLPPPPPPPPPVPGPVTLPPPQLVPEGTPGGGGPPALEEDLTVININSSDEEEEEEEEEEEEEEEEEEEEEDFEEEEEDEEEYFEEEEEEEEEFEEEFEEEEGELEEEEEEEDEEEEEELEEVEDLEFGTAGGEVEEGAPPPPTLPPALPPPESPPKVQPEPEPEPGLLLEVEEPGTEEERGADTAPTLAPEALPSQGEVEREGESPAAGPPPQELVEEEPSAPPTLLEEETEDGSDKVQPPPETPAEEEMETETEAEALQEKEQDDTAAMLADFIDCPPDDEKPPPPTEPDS", "assay": "In vitro peptide competition assay, G9a-GST on glutathione beads with purified PELP1", "type": "binding", "conditions": "peptides 2, 5, 10 μM, 2 hours, FIGS. 2C, 7B, 9", "protocol": "FIGS. 2A-D. (FIG. 2A) Immunoprecipitation was performed on nuclear lysates obtained from ZRPELP1 cells grown in 5% DCC for 72 hours and treated with estradiol 10^−7 M for 12 hours. PELP1 was immunoprecipitated and western blotting was performed for PELP1 and G9a expression with IgG as the control. (FIG. 2B) Various fragments of PELP1 bound to glutathione beads were incubated with recombinant G9a for 2 hours. Beads were washed, run on an SDS-PAGE gel and immunoblotted for G9a expression. GST tag alone is shown as control. (FIG. 2C) Recombinant G9a-GST was bound to glutathione beads and incubated with purified PELP1 and peptides for 2 hours. Beads were washed and run on SDS-PAGE gel. (FIG. 2D) ZR75 cells were transfected with ERE-luciferase, PELP1 and/or G9a plasmids and treated with peptide for 24 hours and estradiol 10^−7 M for 12 hours. Relative luciferase activity is shown.\nas §1\nFIG. 9. […]\nPeptides were linked to EZ-Link NHS-Biotin (Thermo Scientific) per manutfacturer's protocol. […] Beads were washed 3× with IP buffer (20 mM HEPES pH 7.9, 20% glycerol, 0.1% triton-x, 100 mM KCl), eluted with SDS-dye, and PELP1 expression was determined by western blotting. […]"}, "[5]": {"test_system": "ZRPELP1 and MCF7-PELP1 cells", "assay": "Mammosphere formation assay", "type": "cell-based, Human", "conditions": "10 μM and 20 μM, FIG. 12", "protocol": "FIG. 12. Effect of PIP1 on mammosphere formation. Single-cell suspensions of ZR75-PELP1 were plated in triplicate wells at a density of 10,000 cells per ml in mammosphere medium in non-adherent plates. Cultures were treated with indicated concentration of PIP1 and mammospheres were counted after 7 days. ZR75PELP1 and MCF7PELP1 cells were FACS sorted for CD44-APC^high (Milteny Biotec) and CD24-PE^low (Milteny Biotec) cell surface markers. A single cell suspension of model cells ZR75-PELP1 were seeded in mammosphere media in a low adherent 96-well plate with TAT or PIP (10, 20 or 50 μM). Media containing peptide was added on day 4 and mammospheres were counted and imaged on day 8 (Shaw et al., 2012)."}}}
{"sequence": "GRKKRRQRRRGGMVEFRWSCPGRRKAKA [PIP1]", "values": [{"measurement": "Beta-catenin reporter activity", "setting": "[1]", "value": "no significant effect on reporter activity"}, {"measurement": "concentration of potent activity on glioma proliferation", "setting": "[2]", "value": 50, "unit": "µM"}, {"measurement": "proliferation of glioma cell lines and primary GBM cells", "setting": "[2]; varying concentration", "value": "significantly reduced their proliferation in a dose-dependent manner"}, {"measurement": "affinity to bind to PELP1 in peptide pull-down", "setting": "[3]", "value": "higher affinity to bind to PELP1 than PIP2"}, {"measurement": "disruption of PELP1 interaction with G9a/EHMT2", "setting": "[4]", "value": "disrupted by the addition of either of the two peptides in a dose-dependent manner"}, {"measurement": "number of mammospheres", "setting": "[5]", "value": "significant decrease in the number of mammospheres"}, {"measurement": "size of the mammospheres", "setting": "[5]", "value": "substantially decreased"}]}
